Assay results published in ChEMBL document CHEMBL1201862, “PubChem BioAssay data set” (2004).
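Briefly, cells in 96-well plates were exposed to five compound concentrations for 48 h, and endpoints were estimated by linear interpolation. GI50 = concentration required for 50% inhibition of growth.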 Calls of active or inactive are those of the source. Rule as the data show it: active = GI50 up to about 1.1 µM and inactive = higher.

Columns and labels:
Assay in all cases: growth of human tumour cells (NCI), 48 h
ACHN = system: ACHN
CAKI-1 = system: CAKI-1
CCRF-CEM = system: CCRF-CEM
DU-145 = system: DU-145
EKVX = system: EKVX
HCC 2998 = system: HCC 2998
HOP-92 = system: HOP-92
HT-29 = system: HT-29
KM12 = system: KM12
M14 = system: M14
MDA-MB-231 = system: MDA-MB-231
MDA-N = system: MDA-N
NCI-H460 = system: NCI-H460
NCI/ADR-RES = system: NCI/ADR-RES
RPMI-8226 = system: RPMI-8226
SF-539 = system: SF-539
SNB-75 = system: SNB-75
SR = system: SR
SW-620 = system: SW-620
UACC-257 = system: UACC-257

Row | Structure (SMILES) | GI50 (ACHN) | GI50 (CAKI-1) | GI50 (CCRF-CEM) | GI50 (DU-145) | GI50 (EKVX) | GI50 (HCC 2998) | GI50 (HOP-92) | GI50 (HT-29) | GI50 (KM12) | GI50 (M14) | GI50 (MDA-MB-231) | GI50 (MDA-N) | GI50 (NCI-H460) | GI50 (NCI/ADR-RES) | GI50 (RPMI-8226) | GI50 (SF-539) | GI50 (SNB-75) | GI50 (SR) | GI50 (SW-620) | GI50 (UACC-257)
1 | COC(=O)c1ccc(CCC2=CC(=O)C=CC2=O)cc1 | 7.71 µM (inactive) | 4.11 µM (inactive) | 0.603 µM (active) | 18.2 µM (inactive) | 16 µM (inactive) | 16.7 µM (inactive) | 4.43 µM (inactive) | 23.1 µM (inactive) | 11.9 µM (inactive) | 15.1 µM (inactive) | 19.4 µM (inactive) | 12.5 µM (inactive) | 19 µM (inactive) | 20.7 µM (inactive) | 1.8 µM (inactive) | 11.5 µM (inactive) | 16.3 µM (inactive) | 2.49 µM (inactive) | 4.52 µM (inactive) | 9.08 µM (inactive)
2 | N=C(N)SCc1ccc(N=C=S)cc1 | 13.2 µM (inactive) | 12.7 µM (inactive) | 6.93 µM (inactive) | 15.9 µM (inactive) | 15.9 µM (inactive) | 16.6 µM (inactive) | 11.7 µM (inactive) | 15.1 µM (inactive) | 14.3 µM (inactive) |  | 7.74 µM (inactive) | 13.7 µM (inactive) | 14.9 µM (inactive) | 16.9 µM (inactive) | 12.4 µM (inactive) | 14.1 µM (inactive) | 10.2 µM (inactive) | 17.6 µM (inactive) | 12.9 µM (inactive) | 13.1 µM (inactive)
3 | COc1cc(OC)cc(OCc2nc3cc(C(F)(F)F)ccc3nc2-c2ccccc2)c1 | > 100 µM (inactive) | > 100 µM (inactive) | > 100 µM (inactive) | > 100 µM (inactive) | 22.2 µM (inactive) | > 100 µM (inactive) | > 100 µM (inactive) | 29.4 µM (inactive) | > 100 µM (inactive) | > 100 µM (inactive) | 76.4 µM (inactive) | > 100 µM (inactive) | > 100 µM (inactive) | > 100 µM (inactive) | > 100 µM (inactive) | > 100 µM (inactive) | > 100 µM (inactive) | > 100 µM (inactive) | > 100 µM (inactive) | > 100 µM (inactive)
4 | O=c1oc2ccccc2c(Nc2ccc3c(c2)Oc2ccccc2O3)c1[N+](=O)[O-] | 16.3 µM (inactive) | 54.8 µM (inactive) | 40.3 µM (inactive) | 29.6 µM (inactive) | 21.7 µM (inactive) | 28.1 µM (inactive) | 16.7 µM (inactive) | 65.2 µM (inactive) | 59.2 µM (inactive) | 30.3 µM (inactive) | 17.1 µM (inactive) | 49.8 µM (inactive) | 42.2 µM (inactive) | 27.9 µM (inactive) | 59.6 µM (inactive) | 19.2 µM (inactive) | 14.7 µM (inactive) | 38.3 µM (inactive) | 22.7 µM (inactive) | 30.3 µM (inactive)
5 | Cc1coc2c1CC1(C)C(CCC(O)C1C)C2 (centres undefined) | > 100 µM (inactive) | > 100 µM (inactive) | > 100 µM (inactive) | > 100 µM (inactive) | > 100 µM (inactive) | > 100 µM (inactive) | > 100 µM (inactive) | > 100 µM (inactive) | > 100 µM (inactive) | > 100 µM (inactive) | > 100 µM (inactive) | > 100 µM (inactive) | > 100 µM (inactive) | > 100 µM (inactive) | > 100 µM (inactive) | > 100 µM (inactive) | > 100 µM (inactive) | > 100 µM (inactive) | > 100 µM (inactive) | > 100 µM (inactive)
6 | CC(C)C1OC(=O)C(Cc2ccccc2)N(C)C(=O)C(C(C)C)OC(=O)C(Cc2ccccc2)N(C)C(=O)C(C(C)C)OC(=O)C(Cc2ccccc2)N(C)C1=O (centres undefined) | 0.603 µM (active) | 0.979 µM (active) | 0.373 µM (active) | 1.62 µM (inactive) | 0.984 µM (active) | 0.762 µM (active) | 0.528 µM (active) | 0.783 µM (active) | 0.501 µM (active) | 0.713 µM (active) | 1.37 µM (inactive) | 0.815 µM (active) | 0.865 µM (active) | 0.771 µM (active) | 0.489 µM (active) | 1.03 µM (active) | 1.63 µM (inactive) | 1.89 µM (inactive) | 0.685 µM (active) | 0.748 µM (active)
7 | O=[N+]([O-])C(=C(N1CCCCC1)N1CCCCC1)/C(Cl)=C(\Cl)[N+](=O)[O-] | 3.27 µM (inactive) | 1.19 µM (inactive) | 5.11 µM (inactive) | 2.88 µM (inactive) | 13 µM (inactive) | 22.1 µM (inactive) | 2.74 µM (inactive) | 4.74 µM (inactive) | 19.4 µM (inactive) | 8.47 µM (inactive) | 7.59 µM (inactive) | 5.94 µM (inactive) | 22.5 µM (inactive) | 22.7 µM (inactive) | 2.18 µM (inactive) | 9.1 µM (inactive) | 17.5 µM (inactive) | 2.19 µM (inactive) | 3.36 µM (inactive) | 7.71 µM (inactive)
8 | COC(=O)c1ccccc1C1CN=NC12Cc1ccccc1C2=O (centres undefined) | > 100 µM (inactive) | > 100 µM (inactive) | > 100 µM (inactive) | > 100 µM (inactive) | 42.5 µM (inactive) | > 100 µM (inactive) | 34 µM (inactive) | > 100 µM (inactive) | 58.1 µM (inactive) | 68.1 µM (inactive) | 78 µM (inactive) | > 100 µM (inactive) | > 100 µM (inactive) | 46.8 µM (inactive) | 48 µM (inactive) | > 100 µM (inactive) | 43.6 µM (inactive) | > 100 µM (inactive) | > 100 µM (inactive) | > 100 µM (inactive)
9 | COc1ccc(-c2nc3cc(C(F)(F)F)ccc3n2CC2CCCN3CCCCC23)cc1 (centres undefined) | 15.6 µM (inactive) | 21 µM (inactive) | 13.6 µM (inactive) | 17.1 µM (inactive) | 12.1 µM (inactive) | 12.1 µM (inactive) | 14.8 µM (inactive) | 13.3 µM (inactive) | 19.4 µM (inactive) | 13 µM (inactive) | 14.3 µM (inactive) | 19.3 µM (inactive) | 15.8 µM (inactive) | 14.1 µM (inactive) | 14.2 µM (inactive) | 16.8 µM (inactive) | 15.5 µM (inactive) | 13.3 µM (inactive) | 15.2 µM (inactive) | 13.8 µM (inactive)
10 | N#Cc1c(N2CCCC2)ncn(Cc2ccccc2)c1=S | > 92.7 µM (inactive) | > 48 µM (inactive) | > 100 µM (inactive) | 86.3 µM (inactive) | > 79.3 µM (inactive) | > 100 µM (inactive) | 22.4 µM (inactive) | > 100 µM (inactive) | > 100 µM (inactive) | > 100 µM (inactive) | > 88.3 µM (inactive) | > 100 µM (inactive) | > 100 µM (inactive) | 65 µM (inactive) | > 100 µM (inactive) | 40.1 µM (inactive) | 25.8 µM (inactive) | > 100 µM (inactive) | > 100 µM (inactive) | > 100 µM (inactive)
11 | O=C(NC(Cc1c[nH]c2ccccc12)C(=O)O)/C(=C/c1ccccc1O)NC(=O)c1ccccc1 (centres undefined) | 19.2 µM (inactive) | 18.8 µM (inactive) | > 100 µM (inactive) | 43.4 µM (inactive) | 29.2 µM (inactive) | 42.2 µM (inactive) | 14.5 µM (inactive) | > 100 µM (inactive) | 7.16 µM (inactive) | > 100 µM (inactive) | 21 µM (inactive) | 7.05 µM (inactive) | 33.2 µM (inactive) | 13.9 µM (inactive) | > 100 µM (inactive) | 16.1 µM (inactive) | 17.4 µM (inactive) | > 100 µM (inactive) | > 100 µM (inactive) | > 100 µM (inactive)
12 | COc1ccc(CSCc2cc(OC)c(OC)c(OC)c2)cc1 | > 100 µM (inactive) | > 100 µM (inactive) | > 100 µM (inactive) | > 100 µM (inactive) | > 31.6 µM (inactive) | > 31.6 µM (inactive) | 23.9 µM (inactive) | > 100 µM (inactive) | 27.1 µM (inactive) | > 54.5 µM (inactive) | > 100 µM (inactive) | 7.26 µM (inactive) | > 100 µM (inactive) | > 31.6 µM (inactive) | > 55 µM (inactive) | > 71.9 µM (inactive) | 37.5 µM (inactive) | > 100 µM (inactive) | > 83.2 µM (inactive) | > 31.6 µM (inactive)
13 | CN(C)CCOC1(CC2CCCCC2)CCC(C(C)(C)C)CC1 (centres undefined) | 7.57 µM (inactive) | 6.62 µM (inactive) | 2 µM (inactive) | 7.01 µM (inactive) | 8.07 µM (inactive) | 4.38 µM (inactive) | 5.73 µM (inactive) | 2.43 µM (inactive) | 4.27 µM (inactive) | 2.14 µM (inactive) | 4.18 µM (inactive) | 4.25 µM (inactive) | 3.67 µM (inactive) | 9.62 µM (inactive) | 2.02 µM (inactive) | 4.61 µM (inactive) | 6.81 µM (inactive) | 1.69 µM (inactive) | 4.12 µM (inactive) | 4.61 µM (inactive)
14 | C[n+]1c(-c2ccc(/C=N\Nc3ccnc(N/N=C/c4ccc(-c5cn6ccsc6[n+]5C)cc4)n3)cc2)cn2ccsc21 | 32.5 µM (inactive) | 22.7 µM (inactive) | 18.3 µM (inactive) | 27.8 µM (inactive) | 24.8 µM (inactive) | 37.2 µM (inactive) | 18.3 µM (inactive) | 9.93 µM (inactive) | 15.8 µM (inactive) | 4.95 µM (inactive) | 15.2 µM (inactive) | 2.96 µM (inactive) | 23 µM (inactive) | 51.2 µM (inactive) | 4.65 µM (inactive) | 11.6 µM (inactive) | 34 µM (inactive) | 12.6 µM (inactive) | 32.7 µM (inactive) | 17.7 µM (inactive)
